This is an account of results in publication PMC5762315, “Inhibition of polo-like kinase 4 (PLK4): a new therapeutic option for rhabdoid tumors and pediatric medulloblastoma” (Oncotarget, 2017).

The subject of data set [1] is non-neoplastic human fibroblast cells (HFF-SCC058). Description: Immunofluorescence for gamma-tubulin (centriole number), fibroblasts. The format is cell-based. Conditions: 100nM and 500nM. How it is done:
The cells were then blocked in blocking buffer (5% BSA (Jackson Immuno Research Laboratories Inc., USA) in PBST) for 1 hour at RT. The primary antibody ([…] 1:500, Sigma, USA) diluted in 1% BSA in PBST was then added and incubated at 4°C overnight. Then, the cells were washed with 1X PBS thrice. Secondary antibody (Anti-Rabbit IgG (H+L) F (ab’) 2, 1:500, Sigma, USA) diluted in 1% BSA in PBST was added and incubated at RT for 2 hours. Three time washes with 1X PBS were performed. Then, 1mL of DAPI (Thermo Fisher Scientific, USA) in PBS (0.5μl of DAPI in 10 ml PBS) was added to the cells and incubated for 10 min at RT. Finally, 3 time washes with 1X PBS were performed and slides were mounted using Mounting Medium (Thermo Fisher Scientific, USA).

The target of data set [2] is AURKC (Homo sapiens, UniProt Q9UQB9). Nature of the data set: Kinase activity screening (SelectScreen), AURKC. The format is biochemical. The conditions noted are these: read-out: kinase activity inhibited.
Data set [3] deals with DAOY MB cells. Description: Confluency assay (IncuCyte ZOOM), DAOY. Format: cell-based, human. Conditions: increasing concentrations starting at 31.25nM, 48 hours, p-value=0.029. The method, then:
(§1) For further evaluation of the effect of the PLK4 inhibitor over tumor cell proliferation, confluency was measured over a 48 hour period. MON, BT-12, G401 and DAOY cells were plated in 96-well plates with a density of 6 x 10^4 per well. […] Confluency was monitored for 48 hours by taking phase contrast images every 2 hours and measured using an IncuCyte ZOOM system (Essen BioScience, USA). Experiments were performed in triplicates.

Data set [4] deals with MON cells. Description: Viability assay (Presto Blue), MON. Format: cell-based. Conditions: Homo sapiens, dose-response 1nM to 10μM. How it is done: Except DAOY and D283, all cell lines were plated with 2 x 10^3 cells per well 96-well and the absorbance was measured after 48 and 72 hours at drug concentrations of 5, 10, 50, 100, 200, 500nM, 1μM and 5μM.
Data set [5] has as its system PLK4 mRNA expression in MON rhabdoid cells. Description: qRT-PCR for PLK4 transcript in treated MON cells. The format is cell-based, human. Conditions: 10, 50, 100 and 500nM for 24, 48 and 72 hours. The method, then: The expression of PLK4 (Hs00179514_m1) in each cell line was verified by TaqMan GE assays (Thermo Fisher Scientific, USA) using the housekeeping gene GAPDH (Hs02758991_g1) as reference. Total RNA (2μg) was used to make cDNA using the Applied Biosystems High Capacity RNA-to-cDNA kit (Thermo Fisher Scientific). Reactions were performed in triplicate with adequate positive and negative controls. The normalized expression levels were calculated by the ΔΔCt method using the housekeeping gene and a pool of all samples as calibrator.
In general terms: Real-time PCR tracks product formation cycle by cycle.

Data set [6] has as its system BT-12 AT/RT cells. Description: Confluency assay (IncuCyte ZOOM), BT-12. Format: cell-based, human. Conditions: increasing concentrations starting at 31.25nM, 48 hours, p-value=0.001. The method, then: as §1
Data set [7] relates to DAOY cells. Nature of the data set: Colony formation assay, DAOY. Conditions: 50nM. Format: cell-based, human.
Protocol: For proliferation assay DAOY was plated with 5 x 10^4 cells per well and D283 was plated with 5 x 10^5 cells per well.
Data set [8] deals with MUSK (Homo sapiens, UniProt O15146). Description: Kinase activity screening (SelectScreen), MUSK. The format is biochemical. Conditions: 10-point titration.
On the set-up of data set [9]: method as in PMID 28057846. Conditions: adults with advanced solid tumors; cited from earlier work.

MUSK, sequence (O15146 24-869): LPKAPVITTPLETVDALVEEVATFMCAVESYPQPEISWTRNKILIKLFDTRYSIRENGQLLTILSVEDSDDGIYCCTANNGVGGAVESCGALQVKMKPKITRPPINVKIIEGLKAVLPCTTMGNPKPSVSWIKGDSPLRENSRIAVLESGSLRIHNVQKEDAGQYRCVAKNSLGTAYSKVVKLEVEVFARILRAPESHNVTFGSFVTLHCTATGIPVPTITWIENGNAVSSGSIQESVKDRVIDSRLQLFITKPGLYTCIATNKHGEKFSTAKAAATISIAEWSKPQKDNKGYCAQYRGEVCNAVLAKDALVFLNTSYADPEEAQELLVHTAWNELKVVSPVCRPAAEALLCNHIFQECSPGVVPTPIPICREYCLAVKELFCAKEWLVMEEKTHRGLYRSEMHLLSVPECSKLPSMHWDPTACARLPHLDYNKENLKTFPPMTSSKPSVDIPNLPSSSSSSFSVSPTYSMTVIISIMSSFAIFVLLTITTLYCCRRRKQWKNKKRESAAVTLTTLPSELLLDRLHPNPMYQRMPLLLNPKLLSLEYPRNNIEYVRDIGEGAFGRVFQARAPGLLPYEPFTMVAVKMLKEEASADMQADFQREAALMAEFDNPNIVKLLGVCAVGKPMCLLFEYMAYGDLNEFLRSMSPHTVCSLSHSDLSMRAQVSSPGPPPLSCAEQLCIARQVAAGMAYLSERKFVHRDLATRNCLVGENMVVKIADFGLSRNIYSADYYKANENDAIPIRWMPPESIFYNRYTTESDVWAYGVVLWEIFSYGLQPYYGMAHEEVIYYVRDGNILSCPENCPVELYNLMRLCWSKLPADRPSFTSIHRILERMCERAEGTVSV
AURKC, sequence (Q9UQB9 whole entry): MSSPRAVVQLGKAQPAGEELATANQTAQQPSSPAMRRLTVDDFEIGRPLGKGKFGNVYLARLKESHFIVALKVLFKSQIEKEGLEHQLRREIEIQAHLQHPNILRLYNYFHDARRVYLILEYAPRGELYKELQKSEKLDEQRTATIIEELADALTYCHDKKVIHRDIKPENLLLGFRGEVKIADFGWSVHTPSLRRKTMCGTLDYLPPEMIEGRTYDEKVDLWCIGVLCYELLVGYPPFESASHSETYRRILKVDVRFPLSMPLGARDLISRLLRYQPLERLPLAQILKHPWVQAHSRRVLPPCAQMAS

In general, IC50 refers to the point on the concentration scale where inhibition reaches its midpoint. Low values mean inhibition by little substance, high ones a need for much substance. With `COc1ccc2c(c1)[C@]1(C[C@H]1c1ccc3c(/C=C/c4ccc(CN5C[C@@H](C)O[C@@H](C)C5)cc4)n[nH]c3c1)C(=O)N2` [CFI-400945], in data set [1], the “paradoxical effect on centriole number” value is given as “not observed”. Moreover, the inhibition at 0.5 µM in data set [2] was found to be 84%. Also, the results for the “FC, delay in reaching confluency” value in data set [3] and in [6] were 1.70 and 1.89, respectively. Besides, the IC50 in [4] was found to be 5130 nM; in [8], 48.7 nM. Moreover, in [5], the “PLK4 expression (qPCR) vs control” value is on record as “time dependent decrease”. Moreover, the colony formation entry in data set [7] is reported as “Complete inhibition”. Moreover, in [9], the “tolerability, preliminary phase I results” value is given as “well tolerated at doses up to 72 mg”.
